Assay results taken from patent publication US20040224937A1, “Use of protein kinase C inhibitor for suppressing sustained slow postsynaptic excitation (SSPE)” (Pfizer Inc, priority 2003, published 2004).
Entries after “also recorded” stand apart in the source; their conditions may differ.

Tests used:
[1] = system: myenteric intrinsic primary afferent neurons (IPANs; AH neurons); experiment: Sustained slow postsynaptic excitation (SSPE) evoked by 1 Hz, 4 min stimulation of synaptic inputs; intracellular recording in ileum myenteric plexus; format: cell-based, guinea pig; conditions: for effect on the excitability increase associated with SSPE: stimulation of presynaptic inputs 1 Hz for 4 min
Description: (§1) Guinea pigs from the inbred Hartley strain colony of the Department of Anatomy and Cell Biology at the University of Melbourne were used. All efforts were made to minimize animal suffering and numbers of animals used. The experiments conformed to National Health and Medical Research Council of Australia guidelines and were approved by the University of Melbourne Animal Experimentation Ethics Committee. Guinea pigs of either sex (180-250 g) were stunned by a blow to the head and killed by severing the carotid arteries and spinal cord, and segments of ileum were removed into physiological saline. The segments were placed in a recording dish lined with silicone elastomer, opened along the line of the mesenteric attachment and pinned flat under moderate tension with the mucosa uppermost. During dissection, the tissue was immersed in physiological saline (composition in mM: NaCl 118, KCl 4.8, NaHCO3 25, NaH2PO4 1.0, MgSO4 1.2, glucose 11.1, CaCl2 2.5) and kept at room temperature. The mucosa, submucosa and circular smooth muscle were removed to expose the myenteric plexus. The recording dish (volume 4 mL) was then placed on the stage of an inverted microscope and continuously superfused (4 mL/min) with physiological saline that had been preheated to yield a bath temperature of 35-37° C. The superperfusion solution was bubbled with 95% O2 and 5% CO2 and contained nicardipine (3 μM) and hyoscine (1 μM) to inhibit muscle movement. The tissue was equilibrated with the perfusate for 1-2 h before recording was commenced.
(§2) Individual neurons were impaled using conventional intracellular microelectrodes (resistance, […]) filled with 1 M KCl. Signals were amplified using an AxoClamp 2B amplifier (Axon instruments, Foster City, Calif., USA), digitized at 5-20 kHz and stored using PC-based data acquisition software (Axoscope 8.0). Measurements were made after allowing the impalements to stabilize for at least 15 min without applying intracellular holding current. Neurons were identified as AH cells based on the presence of a hump on the falling phase of the action potential and, in most cells, a late after-hyperpolarising potential following the action potential. Stimuli were applied to inter-ganglionic connectives at a frequency of 1 Hz, via a fine tungsten stimulating electrode (tip diameter<50 μm) that was placed on a circumferentially located internodal strand adjacent to the ganglion. Pulses were 0.1 ms in duration and <0.3 mA in intensity.
(§3) Neuronal excitability was assessed, by injecting 500 ms depolarizing current pulses (0.05-0.2 nA). The depolarizing pulses were delivered at intervals of 40 s. The mean excitability was evaluated by averaging the numbers of action potentials evoked by the 6 depolarizing current pulses for periods of 4 min, prior to the 1 Hz stimulus, around the peak of the response, and for a period of 4 min after the end of the stimulus. To determine input resistance (Rin), small hyperpolarizing current pulses (duration 100 ms; intensity<0.02 nA) were injected before each depolarizing pulse. The membrane potential (MP) was sampled each 40 s. MP, Rin, and numbers of action potentials in response to depolarizing pulses were determined.

[2] = system: myenteric intrinsic primary afferent neurons (IPANs; AH neurons); experiment: Direct effect of compounds on excitability, membrane potential, input resistance and action potentials of AH neurons (no or before presynaptic stimulation); format: cell-based, guinea pig
Description: as §1, §2, §3

## O=S(=O)(NCCNC/C=C/c1ccc(Br)cc1)c1cccc2cnccc12 [H89]
[1]; 1 μM
  effect on the excitability increase associated with SSPE: no effect; also recorded: not changed
[2]; 1 μM, about 15-25 min exposure
  effect on excitability, membrane potential or input resistance before stimulation of presynaptic inputs: no changes

## CCCC(=O)O[C@@H]1[C@@H](C)[C@@]2(O)[C@@H](C=C(CO)C[C@]3(O)C(=O)C(C)=C[C@@H]23)[C@@H]2C(C)(C)[C@]12OC(=O)CCC [PDBu, phorbol 12, 13 dibutyrate]
[2]; 1 μM, example neuron, FIG. 5A
  effect on excitability of the neuron: increased the excitability
[2]; 1 μM, example neuron, FIG. 5B
  depolarization: about 8 mV
[2]; 1 μM, example neuron, FIG. 5C
  increase of input resistance: about 100 MΩ
[2]; 0.2-1 μM in bath for 5-10 min
  amplitude of the after-hyperpolarizing potential (AHP) during exposure: decreased
  duration of effect beyond washing out of the compound: ≥ 10 min

## [H]/N=C(/N)SCCCn1cc(C2=C(c3cn(C)c4ccccc34)C(=O)NC2=O)c2ccccc21 [RO31-8220, 3-[1-[3-(Amidinothio)propyl-1H-indol-3-yl]-3-(1-methyl-1H-indol-3-yl)maleimide Bisindolylmaleimide IX, methanesulfonate]
[1]; 1 μM
  effect on the excitability increase associated with SSPE: not reduced
[1]; 3.3 μM, n=6, P<0.1
  effect on the excitability increase associated with SSPE: reduced the degree to which the excitability increased; also recorded: reduction in the increase of AH neuron excitability
[2]; 3.3 μM
  effect on antidromic action potential generation: did not cause a depression
[2]; 3.3 μM, 15 min exposure
  effect on excitability, membrane potential or input resistance before stimulation of presynaptic inputs: without affecting
[2]; 10 μM, restored by increasing stimulus strength
  effect on antidromic action potentials: sometimes suppressed

## CN[C@@H]1C[C@H]2O[C@@](C)([C@@H]1OC)n1c3ccccc3c3c4c(c5c6ccccc6n2c5c31)C(=O)NC4 [staurosporine]
[1]; 1 μM, stimulation 1 Hz for 4 min, n=6, P<0.01 vs control
  decrease of the peak change in excitability during SSPE: about 75%
[1]; 1 μM
  effect on the excitability increase associated with SSPE: significantly smaller or no increase in neuronal excitability
[2]; 1 μM, about 15-25 min exposure
  effect on excitability, membrane potential or input resistance before stimulation of presynaptic inputs: did not cause any change

## calphostin C
[1]; 1 μM, added after SSPE had been enhanced
  reversal of excitability already enhanced by successive stimuli (maintenance of SSPE): did not restore excitability to its pre-stimulus level
[1]; 1 μM
  effect on the excitability increase associated with SSPE: blocked
[1]; 1 μM, listed as Calphostin C
  effect on the excitability increase associated with SSPE: substantially reduced
[2]; 1 μM, about 15-25 min exposure
  effect on excitability, membrane potential or input resistance before stimulation of presynaptic inputs: did not affect
